Entries after “also recorded” stand apart in the source; their conditions may differ.
Assays:
lectin PA-IL = target: T1, lectin PA-IL (Pseudomonas aeruginosa, UniProt Q05097); assay: Isothermal titration microcalorimetry (ITC); type: binding; settings: for ΔH / Ka / −T ΔS / ΔG / n (stoichiometry): ITC, 25 °C; for Ka: association constant; for −T ΔS: calculated from ΔG = ΔH − TΔS; for ΔG: calculated from −RT ln Ka; for n (stoichiometry): single site-binding model
T1 construct: made in house; host or cells: Escherichia coli BL21(DE3)
T1 sequence (Q05097 2-122): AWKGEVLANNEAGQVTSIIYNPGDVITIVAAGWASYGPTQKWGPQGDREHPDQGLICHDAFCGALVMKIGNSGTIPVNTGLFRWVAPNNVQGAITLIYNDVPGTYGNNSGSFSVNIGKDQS
Experimental: All the experiments were performed on MicroCal iTC200 (Malvern Instruments, Malvern, UK) at 25 °C. The freeze-dried lectin PA-IL was dissolved in 0.1 M Tris/HCl, 500 μM CaCl2, pH = 7.5, and equilibrated at room temperature for 1 h before ITC measurements. Multivalent galactosylated compounds 4, 7, 10 and 13 were diluted in the same buffer and used in 0.25–0.5 mM concentrations. Aliquots of 2 µL of the compounds were added automatically to the 0.078 mM or 0.088 mM PA-IL in the calorimeter cell. Blank experiments (injections of compounds to the buffer) were performed and heat responses were subtracted. Integrated heat effects were analyzed by global fitting of data obtained from three independent titrations for each tested compound by non-linear regression using a single site-binding model (Microcal Origin 7, Malvern Instruments, Malvern, UK). Fitted data yielded the association constant (Ka) and the enthalpy of binding (ΔH). Other thermodynamic parameters, i.e., changes in free energy (ΔG) and entropy (ΔS), were calculated from the following equation: ΔG = ΔH − TΔS = −RT ln Ka, where T is the absolute temperature and R = 8.314 J mol^−1 K^−1. The monosaccharide D-galactose was used as a control; 4 mM D-galactose was added to the 0.147 mM PA-IL in the calorimeter cell. Two titration experiments were performed and the heat responses were processed and evaluated as mentioned above.

[1] = tested on: adhesion of P. aeruginosa (ST 1763) to epithelial bronchial cells (CuFi-1); assay: Ex vivo bacterial adherence assay: inhibition of P. aeruginosa adhesion to epithelial cells; type: cell-based, Pseudomonas aeruginosa; settings: for inhibitory effect on bacterial adhesion compared to the control / bacterial adhesion compared to the untreated control: 2 h incubation; for bacterial adhesion compared to the untreated control: highest concentration (2 mM); for concentrations with significant protecting (anti-adhesion) effect: p < 0.05, Dunnett test
Experimental: Epithelial CuFi-1 cells (an immortalized epithelial cell line derived from cystic fibrosis human lungs, ATCC, Kielpin, Poland) were labelled with PKH67 (Fluorescent Cell Linker Kit, Sigma-Aldrich, St. Louis, MO, USA), a green fluorescent membrane marker, as follows. An aliquot of cell suspension containing 7 × 10^6 cells was washed with PBS buffer and centrifuged (100× g for 5 min). The cell pellet was resuspended in 250 µL of Diluent C (Fluorescent Cell Linker Kit, Sigma-Aldrich, St. Louis, MO, USA). Immediately, an equal volume of 8 µM PKH67 in Diluent C (2 µL of PKH67 in 248 µL of Diluent C) was added to the cell suspension. After 5 min incubation at room temperature with periodic mixing, the staining reaction was stopped by adding an equal volume of 1% Fetal Bovine Serum (FBS, Gibco^TM Invitrogen, Paisley, UK) in PBS. After 1 min incubation with FBS, the suspension was centrifuged (100× g for 10 min). Finally, the cells were washed three times with Bronchial Epithelial Cell Growth Basal Medium (Lonza, Basel, Switzerland), followed by centrifugation (100× g for 5 min).
Pseudomonas aeruginosa strain 1763 (University Hospital Motol, Prague, Czech Republic) was stained with PKH26 (Fluorescent Cell Linker Kit, Sigma-Aldrich, St. Louis, MO, USA), a red fluorescent membrane marker. Bacteria were grown in a suspension culture in PS medium (peptone/casein digest) in an Erlenmeyer flask for 14 h. The culture was washed with PBS buffer and centrifuged (13,400× g for 5 min). The pellet containing 1.5 × 10^9 bacteria was resuspended in 125 µL of Diluent C (Fluorescent Cell Linker Kit, Sigma-Aldrich, St. Louis, MO, USA) and an equal volume of 16 µM PKH26 in Diluent C (2 µL of PKH26 in 123 µL of Diluent C) was added to the bacterial suspension. The bacteria/dye suspension was incubated for 30 min at room temperature with periodic mixing. The staining was quenched by adding an equal volume of 1% BSA (Bovine Serum Albumin, Merck, Kenilworth, NJ, USA) in PBS. The suspension was incubated with BSA for 1 min to allow the binding of excess dye and then centrifuged (15,700× g for 10 min). Bacteria were washed two times with PBS, followed by centrifugation (13,400× g for 7.5 and 5 min).
Epithelial cells CuFi-1 stained with PKH67 were seeded at 8.4 × 10^4 cells/well onto 96-well plates (CellBIND® 96-well Flat Clear Bottom Black Polystyrene Microplates, Corning Incorporated, Corning, NY, USA) and incubated for 42–45 h at 37 °C, 5% CO2 to form a confluent monolayer and regenerate. Prior to the assay, wells were washed with PBS. Compounds 4, 7, 10 and 13 were serially diluted with PBS to the desired concentrations. PKH26-stained bacteria P. aeruginosa were added to the diluted inhibitor solutions. Bacterial suspensions were immediately added to the wells (50 µL/well). The input ratio was about 100 bacteria per epithelial cell (8.4 × 10^6 bacteria/well). A suspension without any inhibitor was used as a control. After 2 h incubation at room temperature, the wells were extensively washed three times with PBS to remove non-adhered bacteria. The fluorescence of adhered P. aeruginosa cells (Ex 522 nm, Em 569 nm for PKH26) on epithelial cells (Ex 470 nm, Em 505 for PKH67) was quantified using the spectrofluorometer Tecan Infinite M200 Pro (Tecan Group Ltd., Männedorf, Switzerland). Results were expressed as a relative fluorescence ratio of P. aeruginosa/CuFi-1. Three independent incubations were performed.

[2] = tested on: adhesion of P. aeruginosa (ST 1763) to epithelial bronchial cells (CuFi-1); assay: Ex vivo bacterial adherence assay, combination with compound 14; type: cell-based, Pseudomonas aeruginosa; settings: 2 mM of the compound with compound 14 (250 μM); relative to untreated control
Experimental: Epithelial CuFi-1 cells (an immortalized epithelial cell line derived from cystic fibrosis human lungs, ATCC, Kielpin, Poland) were labelled with PKH67 (Fluorescent Cell Linker Kit, Sigma-Aldrich, St. Louis, MO, USA), a green fluorescent membrane marker, as follows. An aliquot of cell suspension containing 7 × 10^6 cells was washed with PBS buffer and centrifuged (100× g for 5 min). The cell pellet was resuspended in 250 µL of Diluent C (Fluorescent Cell Linker Kit, Sigma-Aldrich, St. Louis, MO, USA). Immediately, an equal volume of 8 µM PKH67 in Diluent C (2 µL of PKH67 in 248 µL of Diluent C) was added to the cell suspension. […]
Epithelial cells CuFi-1 stained with PKH67 were seeded at 8.4 × 10^4 cells/well onto 96-well plates (CellBIND® 96-well Flat Clear Bottom Black Polystyrene Microplates, Corning Incorporated, Corning, NY, USA) and incubated for 42–45 h at 37 °C, 5% CO2 to form a confluent monolayer and regenerate. […] The fluorescence of adhered P. aeruginosa cells (Ex 522 nm, Em 569 nm for PKH26) on epithelial cells (Ex 470 nm, Em 505 for PKH67) was quantified using the spectrofluorometer Tecan Infinite M200 Pro (Tecan Group Ltd., Männedorf, Switzerland). Results were expressed as a relative fluorescence ratio of P. aeruginosa/CuFi-1. […]

SMILES | ΔH (lectin PA-IL) [kcal/mol] | Ka (lectin PA-IL) | −T ΔS (lectin PA-IL) [kcal/mol] | ΔG (lectin PA-IL) [kcal/mol] | n (stoichiometry) (lectin PA-IL) | inhibitory effect on bacterial adhesion compared to the control [1] | Kd (lectin PA-IL) [nM] | lower concentrations resulting in statistically significantly increased fluorescent signal (adhered bacteria) [1] [µM] | bacterial adhesion compared to the untreated control [1] | concentrations with significant protecting (anti-adhesion) effect [1] [mM] | P. aeruginosa adhesion, mixture with compound 14 [2]
COC(=O)c1cc(OCc2cn(CCOCCOCCOCCn3cc(CO[C@@H]4O[C@H](CO)[C@H](O)[C@H](O)[C@H]4O)nn3)nn2)c(OCc2cn(CCOCCOCCOCCn3cc(CO[C@@H]4O[C@H](CO)[C@H](O)[C@H](O)[C@H]4O)nn3)nn2)c(OCc2cn(CCOCCOCCOCCn3cc(CO[C@@H]4O[C@H](CO)[C@H](O)[C@H](O)[C@H]4O)nn3)nn2)c1 [Compound 4] | -19.3 ± 0.241 | 128 ± 15.1 10^4 M^−1 | 11 ± 1.43 | -8.32 ± 0.982 | 0.51 ± 0.01 | no inhibitory effect; also recorded: no visible protective effect |  |  |  |  | 
OC[C@H]1O[C@@H](OCc2cn(CCOCCOCCOCCn3cc(COCC(COCc4cn(CCOCCOCCOCCn5cc(CO[C@@H]6O[C@H](CO)[C@H](O)[C@H](O)[C@H]6O)nn5)nn4)(COCc4cn(CCOCCOCCOCCn5cc(CO[C@@H]6O[C@H](CO)[C@H](O)[C@H](O)[C@H]6O)nn5)nn4)COCc4cn(CCOCCOCCOCCn5cc(CO[C@@H]6O[C@H](CO)[C@H](O)[C@H](O)[C@H]6O)nn5)nn4)nn3)nn2)[C@H](O)[C@@H](O)[C@H]1O [Compound 7] | -26.29 ± 0.196 | 281 ± 23.5 10^4 M^−1 | 17.4 ± 1.59 | -8.8 ± 0.739 | 0.32 ± 0.01 | no inhibitory effect; also recorded: no visible protective effect |  |  |  |  | 
COC(=O)c1cc(OCc2cn(CCn3cc(CO[C@@H]4O[C@H](CO)[C@H](O)[C@H](O)[C@H]4O)nn3)nn2)c(OCc2cn(CCn3cc(CO[C@@H]4O[C@H](CO)[C@H](O)[C@H](O)[C@H]4O)nn3)nn2)c(OCc2cn(CCn3cc(CO[C@@H]4O[C@H](CO)[C@H](O)[C@H](O)[C@H]4O)nn3)nn2)c1 [Compound 10] | -16.3 ± 0.179 |  | 7.98 ± 0.925 | -8.29 ± 0.87 | 0.53 ± 0.01 |  | 820 | ≤ 125 | approximately 32% | ≥ 1 | approximately 22%
OC[C@H]1O[C@@H](OCc2cn(CCn3cc(COCC(COCc4cn(CCn5cc(CO[C@@H]6O[C@H](CO)[C@H](O)[C@H](O)[C@H]6O)nn5)nn4)(COCc4cn(CCn5cc(CO[C@@H]6O[C@H](CO)[C@H](O)[C@H](O)[C@H]6O)nn5)nn4)COCc4cn(CCn5cc(CO[C@@H]6O[C@H](CO)[C@H](O)[C@H](O)[C@H]6O)nn5)nn4)nn3)nn2)[C@H](O)[C@@H](O)[C@H]1O [Compound 13] | -32.03 ± 0.347 | 470 ± 54.5 10^4 M^−1 | 22.9 ± 2.904 | -9.11 ± 1.06 | 0.21 ± 0.01 |  |  | ≤ 125 | ~42% | ≥ 1 | ~23%

Reference: PMC6920806, “Synthesis of β-D-galactopyranoside-Presenting Glycoclusters, Investigation of Their Interactions with Pseudomonas aeruginosa Lectin A (PA-IL) and Evaluation of Their Anti-Adhesion Potential” (Biomolecules, 2019)
